In PMC4390470 (Investigational new drugs, 2015):
Where two headings read alike, the source gives them in different places. Each block holds one compound with its values, some of them ahead of it.

Columns and labels:
[1] = test system: metastatic castration-resistant prostate cancer (mCRPC); conditions: cited from earlier work
[2] = in vivo
[3] = human, in vivo, 28 days
[4] = in vivo; remark: listed apart in the source

Structure (SMILES): CC(=O)O[C@H]1CC[C@@]2(C)C(=CC[C@@H]3[C@@H]2CC[C@]2(C)C(c4cccnc4)=CC[C@@H]32)C1 [Abiraterone acetate]
- Median OS ([1]; chemotherapy-naïve mCRPC, versus placebo 27.2, ref [16]): not reached
- Median OS ([1]; mCRPC following docetaxel therapy, versus placebo 11.2, ref [15]): 15.8 months

- Tmax (human, plasma, other: orteronel oral (PO), docetaxel intravenous infusion): ~1 h
- Mean plasma concentration-time profile, alone versus in combination (phase 2, orteronel with/without docetaxel and docetaxel with/without orteronel): similar
- AUC0-tau and Cmax, alone versus in combination (phase 2, orteronel with/without docetaxel and vice versa): similar
Structure (SMILES): CC(=O)O[C@@]12CO[C@@H]1C[C@H](O)[C@@]1(C)C(=O)[C@H](O)C3=C(C)[C@@H](OC(=O)[C@H](O)[C@@H](NC(=O)OC(C)(C)C)c4ccccc4)C[C@@](O)([C@@H](OC(=O)c4ccccc4)[C@H]21)C3(C)C [docetaxel]

Structure (SMILES): CNC(=O)c1ccc(N2C(=S)N(c3ccc(C#N)c(C(F)(F)F)c3)C(=O)C2(C)C)cc1F [enzalutamide]
- Median OS ([1]; chemotherapy-naïve mCRPC, versus placebo 31.0, ref [14]): not reached
- Median OS ([1]; mCRPC following docetaxel therapy, versus placebo 13.6, ref [17]): 18.4 months

- AUC0-tau and Cmax, alone versus in combination [2]: similar
- Mean plasma concentration-time profile, alone versus in combination [2]: similar
- Recommended phase 2 dose (RP2D) of orteronel in combination with DP [3]: 400 mg BID
Structure (SMILES): CNC(=O)c1ccc2cc([C@@]3(O)CCn4cncc43)ccc2c1 [orteronel]
- Cardiovascular profile [4]: acceptable cardiovascular profile
